Experimental data as given in article doi:10.1101/2023.12.04.569845, “Identification of 4-(6-((2-methoxyphenyl)amino)pyrazin-2-yl)benzoic acids as CSNK2A inhibitors with antiviral activity and improved selectivity over PIM3” (bioRxiv, 2023).
Like-named read-outs stand apart in the source and are kept apart here.

Experiments:
Assay in all cases: biochemical
Design in all cases: Thermal shift (DSF, SYPRO Orange) Tm shift of recombinant kinase domains at 10 uM compound
[1] = target: T1, MAPK15 (Homo sapiens, UniProt Q8TD08)
T1 sequence (Q8TD08 1-544): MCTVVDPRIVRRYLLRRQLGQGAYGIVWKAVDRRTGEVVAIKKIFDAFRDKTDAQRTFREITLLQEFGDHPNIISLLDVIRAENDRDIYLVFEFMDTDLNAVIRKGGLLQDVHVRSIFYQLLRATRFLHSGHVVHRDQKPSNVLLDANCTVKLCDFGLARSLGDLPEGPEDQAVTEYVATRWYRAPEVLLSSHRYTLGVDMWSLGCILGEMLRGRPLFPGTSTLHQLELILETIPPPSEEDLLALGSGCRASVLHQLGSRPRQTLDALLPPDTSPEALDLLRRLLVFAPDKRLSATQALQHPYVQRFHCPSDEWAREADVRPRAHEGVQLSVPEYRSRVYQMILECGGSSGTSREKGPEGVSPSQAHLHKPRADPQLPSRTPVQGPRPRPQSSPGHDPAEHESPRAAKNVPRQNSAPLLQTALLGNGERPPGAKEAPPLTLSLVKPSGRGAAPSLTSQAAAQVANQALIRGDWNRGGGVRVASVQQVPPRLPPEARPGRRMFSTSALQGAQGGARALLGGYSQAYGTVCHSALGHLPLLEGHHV

[2] = target: T2, MYT1 (Homo sapiens, UniProt Q99640)
T2 construct: gene PKMYT1
T2 sequence (Q99640 1-499): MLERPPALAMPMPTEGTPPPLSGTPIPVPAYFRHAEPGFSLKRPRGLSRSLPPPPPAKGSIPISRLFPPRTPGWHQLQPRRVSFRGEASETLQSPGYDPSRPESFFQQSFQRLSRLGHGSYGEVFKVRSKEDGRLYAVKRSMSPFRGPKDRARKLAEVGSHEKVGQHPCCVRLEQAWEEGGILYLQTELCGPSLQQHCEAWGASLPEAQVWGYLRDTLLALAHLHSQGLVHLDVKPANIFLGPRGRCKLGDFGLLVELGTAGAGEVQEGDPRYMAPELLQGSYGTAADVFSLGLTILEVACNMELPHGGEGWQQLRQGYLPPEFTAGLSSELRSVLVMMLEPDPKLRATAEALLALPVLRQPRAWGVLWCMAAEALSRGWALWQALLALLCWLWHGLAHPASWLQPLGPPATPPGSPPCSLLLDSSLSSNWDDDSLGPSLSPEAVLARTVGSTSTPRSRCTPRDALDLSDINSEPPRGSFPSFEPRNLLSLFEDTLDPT

[3] = target: T3, AurA (Homo sapiens, UniProt O14965)
T3 construct: gene AURKA
T3 sequence (O14965 1-403): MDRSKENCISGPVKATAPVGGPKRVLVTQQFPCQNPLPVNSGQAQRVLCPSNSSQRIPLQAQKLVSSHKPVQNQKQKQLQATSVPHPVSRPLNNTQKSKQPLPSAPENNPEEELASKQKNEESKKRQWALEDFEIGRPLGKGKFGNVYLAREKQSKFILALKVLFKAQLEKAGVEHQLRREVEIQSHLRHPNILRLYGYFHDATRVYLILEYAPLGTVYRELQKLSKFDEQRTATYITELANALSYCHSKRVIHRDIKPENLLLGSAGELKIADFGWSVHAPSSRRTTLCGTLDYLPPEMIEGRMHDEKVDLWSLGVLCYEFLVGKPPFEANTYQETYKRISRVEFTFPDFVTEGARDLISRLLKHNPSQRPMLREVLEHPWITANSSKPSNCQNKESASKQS

[4] = target: CAMK2D (Homo sapiens, UniProt Q13557)
[5] = target: CLK3 (Homo sapiens, UniProt P49761)
CLK3, sequence (P49761 whole entry): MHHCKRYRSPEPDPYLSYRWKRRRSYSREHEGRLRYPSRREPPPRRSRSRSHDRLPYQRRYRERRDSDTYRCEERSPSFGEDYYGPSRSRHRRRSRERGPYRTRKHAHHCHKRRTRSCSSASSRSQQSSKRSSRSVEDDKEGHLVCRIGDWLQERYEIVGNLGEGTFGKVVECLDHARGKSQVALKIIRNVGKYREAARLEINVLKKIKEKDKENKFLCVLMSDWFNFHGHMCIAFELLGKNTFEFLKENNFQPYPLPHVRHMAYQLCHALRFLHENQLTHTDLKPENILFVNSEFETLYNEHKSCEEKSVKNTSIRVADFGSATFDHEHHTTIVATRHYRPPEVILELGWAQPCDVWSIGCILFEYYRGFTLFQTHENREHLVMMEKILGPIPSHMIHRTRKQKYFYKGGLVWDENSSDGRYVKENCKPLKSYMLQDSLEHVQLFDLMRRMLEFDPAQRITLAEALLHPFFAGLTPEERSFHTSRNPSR

CAMK2D, sequence (Q13557 whole entry): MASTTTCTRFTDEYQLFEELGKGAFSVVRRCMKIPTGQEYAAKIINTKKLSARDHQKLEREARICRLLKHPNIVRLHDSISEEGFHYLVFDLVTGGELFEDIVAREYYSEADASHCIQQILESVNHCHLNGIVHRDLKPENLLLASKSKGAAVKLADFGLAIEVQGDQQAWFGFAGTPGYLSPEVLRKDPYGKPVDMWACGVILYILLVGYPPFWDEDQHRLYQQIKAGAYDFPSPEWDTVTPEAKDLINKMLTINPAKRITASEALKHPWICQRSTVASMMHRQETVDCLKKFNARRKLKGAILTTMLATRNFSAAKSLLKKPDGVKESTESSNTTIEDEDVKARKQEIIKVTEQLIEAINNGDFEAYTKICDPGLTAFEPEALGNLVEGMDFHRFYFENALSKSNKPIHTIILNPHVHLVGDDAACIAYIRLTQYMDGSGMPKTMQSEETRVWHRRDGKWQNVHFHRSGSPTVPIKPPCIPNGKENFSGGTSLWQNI

COc1ccc(OC(C)C)cc1Nc1cncc(-c2ccc(C(=O)O)cc2)n1 [7c]
ΔTm at 10 µM ([1]; read-out: 7c): 10 °C | ΔTm at 10 µM ([2]; read-out: 7c): 0 °C | ΔTm at 10 µM ([3]; read-out: 7c): 4 °C | ΔTm at 10 µM ([4]; read-out: 7c): 0 °C | ΔTm at 10 µM ([5]; read-out: 7c): 7 °C

CC(C)Nc1ccc2cnn(-c3cncc(-c4ccc(C(=O)O)cc4)n3)c2c1 [compound 2, 2]
ΔTm at 10 µM ([1]; read-out: 2): 12 °C | ΔTm at 10 µM ([2]; read-out: 2): 0 °C | ΔTm at 10 µM ([3]; read-out: 2): 10 °C | ΔTm at 10 µM ([4]; read-out: 2): 3 °C | ΔTm at 10 µM ([5]; read-out: 2): 8 °C

CC(C)Oc1ccc2ccn(-c3cncc(-c4ccc(C(=O)O)cc4)n3)c2c1 [6c]
ΔTm at 10 µM ([1]; read-out: 6c): 15 °C | ΔTm at 10 µM ([2]; read-out: 6c): 0 °C | ΔTm at 10 µM ([3]; read-out: 6c): 8 °C | ΔTm at 10 µM ([4]; read-out: 6c): 3 °C | ΔTm at 10 µM ([5]; read-out: 6c): 8 °C
